Experimental findings from PubChem BioAssay AID330 (DTP/NCI, 2004) are described below.

This assay concerns P388 leukemia ip, CD2F1 mice, survival T/C. As to the kind of experiment: NCI In Vivo Anticancer Drug Screen. Data for tumor model P388 Leukemia (intraperitoneal) in CD2F1 (CDF1) mice. The settings on record: endpoint: median survival time, higher = longer survival. Put shortly:
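Mice carrying the transplanted tumor received test compound or vehicle. Survival was recorded in each group, and the value is the treated-group measurement divided by that of the vehicle-treated control group.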

[1] abbreviates: dose: 100.0 mg/kg/injection, schedule: Q04DX003 (ip), vehicle: saline with Tween-80.
Where [2] appears, read: dose: 50.0 mg/kg/injection, schedule: Q01DX005 (ip), vehicle: Klucel (hydroxypropylcellulose) (HPC).
Setting [3] is: dose: 100.0 mg/kg/injection, schedule: Q01DX005 (ip), vehicle: Klucel (hydroxypropylcellulose) (HPC).
The mark [4] stands for this setting: dose: 200.0 mg/kg/injection, schedule: Q01DX005 (ip), vehicle: Klucel (hydroxypropylcellulose) (HPC).
Where [5] appears, read: dose: 25.0 mg/kg/injection, schedule: Q01DX005 (ip), vehicle: saline with Tween-80.
The mark [6] stands for this setting: dose: 50.0 mg/kg/injection, schedule: Q01DX005 (ip), vehicle: saline with Tween-80.
Where [7] appears, read: dose: 100.0 mg/kg/injection, schedule: Q01DX005 (ip), vehicle: saline with Tween-80.
[8] abbreviates: dose: 200.0 mg/kg/injection, schedule: Q01DX005 (ip), vehicle: saline with Tween-80.
[9] abbreviates: dose: 60.0 mg/kg/injection, schedule: Q01DX005 (ip), vehicle: saline with Tween-80.
The mark [10] stands for this setting: dose: 120.0 mg/kg/injection, schedule: Q01DX005 (ip), vehicle: saline with Tween-80.
Setting [11] is: dose: 240.0 mg/kg/injection, schedule: Q01DX005 (ip), vehicle: saline with Tween-80.
The mark [12] stands for this setting: dose: 50.0 mg/kg/injection, schedule: Q01DX009 (ip), vehicle: Klucel (hydroxypropylcellulose) (HPC).

The structures appear in SMILES notation. Values joined by “and” are separate entries in the source; they are usually repeats but may differ in a detail not shown here. Equal values may be shown once. Inconclusive results and toxic doses are left out.

As to `O=C1CCCCCC1c1ccccc1` (configuration not stated), the T/C runs as follows: under setting [1], 104 % of control; (dose: 200.0 mg/kg/injection, schedule: Q04DX003 (ip), vehicle: saline with Tween-80) 104 % of control; (dose: 400.0 mg/kg/injection, schedule: Q04DX003 (ip), vehicle: saline with Tween-80) 109 % of control.

As for `CC1CN(Cc2ccccc2O)CC(C)N1` (configuration not stated), the T/C was 90 % of control (dose: 6.25 mg/kg/injection, schedule: Q01DX009 (ip), vehicle: water); 93 % of control (dose: 12.5 mg/kg/injection, schedule: Q01DX009 (ip), vehicle: water); 106 % of control (dose: 25.0 mg/kg/injection, schedule: Q01DX009 (ip), vehicle: water); 91 % of control (dose: 50.0 mg/kg/injection, schedule: Q01DX009 (ip), vehicle: water); 94 % of control (dose: 100.0 mg/kg/injection, schedule: Q01DX009 (ip), vehicle: water).

As for `COc1ccc2nccc(CO)c2c1`, the T/C was 102 % of control under setting [2], 102 % of control under setting [3] and 96 % of control under setting [4].

For `CC1CC(c2ccccc2)(c2ccccc2)CN1C` (configuration not stated), the T/C runs as follows: (dose: 12.5 mg/kg/injection, schedule: Q01DX005 (ip), vehicle: saline with Tween-80) 105 % of control; under setting [5], 102 % of control; under setting [6], 102 % of control and 103 % of control.

Regarding `CNC(=O)Oc1ccc(Sc2ccc(OC(=O)NC)c(Cl)c2)cc1Cl`, the T/C reads like this: (dose: 50.0 mg/kg/injection, schedule: Q01DX005 (ip), vehicle: saline + Tween-80 + alcohol) 106 % of control; under setting [6], 99 % of control and 118 % of control; (dose: 100.0 mg/kg/injection, schedule: Q01DX005 (ip), vehicle: saline + Tween-80 + alcohol) 119 % of control; under setting [7], 102 % of control and 118 % of control; (dose: 200.0 mg/kg/injection, schedule: Q01DX005 (ip), vehicle: saline + Tween-80 + alcohol) 114 % of control; under setting [8], 117 % of control. For the same molecule, for the setting “dose: 400.0 mg/kg/injection, schedule: Q01DX005 (ip), vehicle: saline + Tween-80 + alcohol”, the T/C is 124 % of control.

Turning to `C=C=C(COC(C)=O)ON1CCCCC1`, the T/C by setting is: (dose: 50.0 mg/kg/injection, schedule: Q01DX005 (ip), vehicle: saline) 111 % of control; (dose: 100.0 mg/kg/injection, schedule: Q01DX005 (ip), vehicle: saline) 111 % of control.

`CC1CC(C)/C(=N/NC(N)=O)C(C(O)CC2CCC(=O)NC2=O)C1` (configuration not stated): the T/C was 100 % of control under setting [6], 115 % of control under setting [7] and 115 % of control under setting [8].

As for `O=C1SCCC1n1c(=O)c1=O` (configuration not stated), the T/C under setting [5] was 100 % of control; the T/C under setting [6] is 98 % of control; the T/C under setting [9] is 94 % of control; the T/C under setting [7] was 105 % of control; the T/C under setting [10] was 99 % of control; the T/C under setting [8] is 96 % of control. In addition, the T/C runs as follows: under setting [11], 90 % of control; (dose: 400.0 mg/kg/injection, schedule: Q01DX005 (ip), vehicle: saline with Tween-80) 99 % of control.

Turning to `C[n+]1cccc2c1C(=O)C(=O)c1c-2ccc[n+]1C`, the T/C runs as follows: (dose: 100.0 mg/kg/injection, schedule: Q04DX002 (ip), vehicle: saline with Tween-80) 120 % of control; (dose: 200.0 mg/kg/injection, schedule: Q04DX002 (ip), vehicle: saline with Tween-80) 105 % of control.

Take `CC[N+](C)(CC)CCOC(C)=O`: the T/C is, setting by setting: (dose: 6.25 mg/kg/injection, schedule: Q01DX001 (ip), vehicle: saline) 100 % of control; (dose: 12.5 mg/kg/injection, schedule: Q01DX001 (ip), vehicle: saline) 100 % of control; (dose: 25.0 mg/kg/injection, schedule: Q01DX001 (ip), vehicle: saline with Tween-80) 101 % of control; (dose: 25.0 mg/kg/injection, schedule: Q01DX001 (ip), vehicle: saline) 98 % of control.

In the case of `COc1ccc(C2=NNC(=O)C3NC(=O)C(C#N)=C(C(=O)NN)C23c2ccc(OC)cc2)cc1` (configuration not stated), the T/C runs as follows: under setting [9], 99 % of control; under setting [10], 91 % of control; under setting [11], 89 % of control.

`O=[N+]([O-])C1C=Nc2ccccc2N=C1`: the T/C runs as follows: under setting [12], 105 % of control; (dose: 100.0 mg/kg/injection, schedule: Q01DX009 (ip), vehicle: Klucel (hydroxypropylcellulose) (HPC)) 97 % of control; (dose: 200.0 mg/kg/injection, schedule: Q01DX009 (ip), vehicle: Klucel (hydroxypropylcellulose) (HPC)) 97 % of control; (dose: 400.0 mg/kg/injection, schedule: Q01DX009 (ip), vehicle: Klucel (hydroxypropylcellulose) (HPC)) 96 % of control.

On to `Clc1nc(Cl)nc(Nc2ccc(-c3cc4ccc(-c5ncc[nH]5)cc4[nH]3)cc2)n1`, for which the T/C by setting is: (dose: 60.0 mg/kg/injection, schedule: Q01DX005 (ip), vehicle: Klucel (hydroxypropylcellulose) (HPC)) 100 % of control; (dose: 120.0 mg/kg/injection, schedule: Q01DX005 (ip), vehicle: Klucel (hydroxypropylcellulose) (HPC)) 100 % of control; (dose: 240.0 mg/kg/injection, schedule: Q01DX005 (ip), vehicle: Klucel (hydroxypropylcellulose) (HPC)) 105 % of control.

Turning to `S=C(S)NN1CCCC1`, the T/C was 100 % of control (dose: 12.5 mg/kg/injection, schedule: Q01DX009 (ip), vehicle: saline with Tween-80); 100 % of control (dose: 25.0 mg/kg/injection, schedule: Q01DX009 (ip), vehicle: saline with Tween-80); 100 % of control (dose: 50.0 mg/kg/injection, schedule: Q01DX009 (ip), vehicle: saline with Tween-80).

With `OC(CN(Cc1nc2ccccc2[nH]1)Cc1nc2ccccc2[nH]1)CN(Cc1nc2ccccc2[nH]1)Cc1nc2ccccc2[nH]1`, the T/C was 115 % of control under setting [9] and 115 % of control under setting [10].

Take `Clc1ccc(CN2COc3c(ccc4cccnc34)C2)cc1`: the T/C was 101 % of control and 115 % of control (dose: 50.0 mg/kg/injection, schedule: Q04DX003 (ip), vehicle: Klucel (hydroxypropylcellulose) (HPC)); 101 % of control and 105 % of control and 97 % of control (dose: 100.0 mg/kg/injection, schedule: Q04DX003 (ip), vehicle: Klucel (hydroxypropylcellulose) (HPC)); 100 % of control and 103 % of control and 123 % of control (dose: 200.0 mg/kg/injection, schedule: Q04DX003 (ip), vehicle: Klucel (hydroxypropylcellulose) (HPC)); 93 % of control (dose: 400.0 mg/kg/injection, schedule: Q04DX003 (ip), vehicle: Klucel (hydroxypropylcellulose) (HPC)).

Turning to `CC(C)(CO)NCC(O)CS(=O)(=O)O` (configuration not stated), the T/C is 100 % of control (dose: 60.0 mg/kg/injection, schedule: Q01DX005 (ip), vehicle: saline); 100 % of control (dose: 120.0 mg/kg/injection, schedule: Q01DX005 (ip), vehicle: saline); 101 % of control (dose: 240.0 mg/kg/injection, schedule: Q01DX005 (ip), vehicle: saline).

Take `COc1cc(Cc2nccc3cc(OC)c(OC)cc23)c(C(C)=O)cc1OC`: the T/C by setting is: (dose: 3.13 mg/kg/injection, schedule: Q01DX009 (ip), vehicle: saline sonified) 123 % of control; (dose: 12.5 mg/kg/injection, schedule: Q01DX009 (ip), vehicle: Klucel (hydroxypropylcellulose) (HPC)) 105 % of control; (dose: 12.5 mg/kg/injection, schedule: Q01DX009 (ip), vehicle: saline sonified) 161 % of control; (dose: 25.0 mg/kg/injection, schedule: Q01DX009 (ip), vehicle: Klucel (hydroxypropylcellulose) (HPC)) 106 % of control; under setting [12], 113 % of control; under setting [1], 100 % of control.

With `O=C(N/N=C/c1cccc(C(F)(F)F)c1)c1ccncc1`, the T/C is 103 % of control under setting [9], 97 % of control under setting [10] and 90 % of control under setting [11].

Take `O=C1CCC(c2nc(=S)[nH][nH]2)N1Cc1ccccc1` (configuration not stated): the T/C reads like this: under setting [9], 101 % of control; under setting [10], 102 % of control; under setting [11], 101 % of control.

`Nc1cc2nc3ccccc3c(=O)n2[nH]1`: the T/C was 98 % of control under setting [2], 91 % of control under setting [3] and 86 % of control under setting [4].
